From PMC12040169 (PLOS Biology, 2025)

Assay: in vitro
Details: human, hela cells, % viability

Row | SMILES | viability at 28.5 h, 10 µM
1 | O=C(CCc1ccno1)NC(Cc1ccsc1)c1cccnc1 (stereo not shown) [CBK285395] | 97.3%
2 | Cc1ccc2nc(NC(=O)COc3ccccc3)sc2c1 [CBK287335] | 91%
3 | COC1CCCC(C(=O)N2CCCC2c2nc3ccccc3[nH]2)C1 (stereo not shown) [CBK284007] | 101%
4 | O=C(NCCCN1CCCC(O)C1)N1CCCN(Cc2cccs2)CC1 (stereo not shown) [CBK307116] | 82%
5 | COc1ccccc1-n1nc(-c2ccncc2)nc1C1CCOCC1 [CBK307229] | 95%
6 | O=C(Cn1cccn1)N1CCc2[nH]c3ccccc3c2C1 [CBK281839] | 92.6%
7 | CCN1CCCCC1CNC(=O)c1sc(C)nc1C (stereo not shown) [CBK282206] | 90.2%
8 | CN(C)S(=O)(=O)n1cc(/C=C/c2nc(N)nc(-c3ccccc3O)n2)c2ccccc21 [CBK268386] | 119%
9 | CC(=O)c1sc(=S)n(N(C)C)c1C [CBK006774] | 91.6%
10 | Cc1ncsc1CCOc1nc2cc(Cl)c(Cl)cc2nc1NC(C)C [CBK115744] | 88.6%
11 | O=C(NCCc1cnc[nH]1)NC1CCCCC1 [CBK269975] | 100%
12 | CC(CNS(=O)(=O)c1ccc(N2CCCC2=O)cc1)Cn1cccn1 (stereo not shown) [CBK304656] | 87.7%
13 | Cc1cnc2[nH]c(C3CCCN(C(=O)c4cccnc4)C3)cc2c1 (stereo not shown) [CBK285168] | 86.1%
14 | CNS(=O)(=O)c1ccc2c(c1)CCN2C(=O)C1C2CCCCC21 (stereo not shown) [CBK281521] | 100%
15 | Cc1ccc(N(CC(=O)N/N=C/c2ccc(Cl)cc2)S(=O)(=O)c2ccccc2)cc1 [CBK262182] | 98.3%
16 | Cc1ccc(C2=CCN(CC(N)=O)CC2)o1 [CBK283570] | 98.3%
17 | N#Cc1c(NC(=O)CSc2ncnc3c2cnn3-c2ccccc2)sc2c1CCCC2 [CBK269478] | 92.6%
18 | NC1=NN(c2ccccc2)C(=O)C1 [CBK144946] | 97.3%
19 | N#CC(/N=C/c1ccc(C#Cc2ccccc2)cc1)=C(C#N)/N=C/c1ccc(C#Cc2ccccc2)cc1 [CBK262066] | 88%
20 | COc1ccc(CCNc2ncnc3c2cnn3-c2ccc(C)cc2C)cc1OC [CBK294448] | 88.2%
21 | CSc1ncc(C(=O)N2CCC(N3CCCC(O)C3)CC2)cn1 (stereo not shown) [CBK307055] | 106%
22 | CCN(CC)CC(=O)Nc1ccccc1OC [CBK266213C] | 113%
23 | O=S(=O)(Cc1cc(Cl)ccc1C(F)(F)F)c1cc2c(N3CCNCC3)nccc2s1 [CBK049960C] | 115%

Row | SMILES | viability at 28.5 h, 10 µM
24 | OCCN1CCN(c2cncc(-c3cccc(OC(F)(F)F)c3)n2)CC1 [CBK065941] | 108%
25 | Nc1nnc(SC/C=C/CSc2nnc(N)s2)s1 [CBK263092] | 90.3%
26 | CC1(CNC(=O)c2cn3cc(Cl)ccc3n2)COC1 [CBK281748] | 91.4%
27 | Cc1nn(-c2ccccc2)c2c1C(C(=O)c1ccc3c(c1)OCO3)CC(=O)N2 (stereo not shown) [CBK294436] | 86.1%
28 | Nc1ncnc2[nH]nc(Nc3ccc(F)cc3)c12 [CBK122523] | 79%
29 | O=C(C1=C(O)C(=O)N(CCCN2CCOCC2)C1c1cccnc1)c1ccco1 (stereo not shown) [CBK264528] | 102%
30 | COc1ccc2c(c1)C1(Nc3ccccc3C(=O)N1c1ccccc1)C(=O)N2 (stereo not shown) [CBK103747] | 94.1%
31 | COc1cc(/C=N/Nc2nc(-c3ccccc3)cc(-c3ccc(OC)c(OC)c3)n2)ccc1O [CBK262841] | 52.2%
32 | c1ccc2c(c1)oc1cccc(-c3cc(NCCc4c[nH]cn4)ncn3)c12 [CBK037708] | 94.6%
33 | COc1ccc(-c2cn(C[C@H]3CC4CCN3C[C@@H]4C(=O)NC3CCCCC3)nn2)cc1 (stereo partly shown) [CBK289084] | 107%
34 | CCNC(=S)N[C@H]1CC[C@@]2(Cc3ccccc3Cl)CCN(C)[C@H]2C1 [CBK003708] | 92%
35 | O=C(Nc1ccc(O)cc1C(=O)O)c1cccc(Br)c1 [CBK018511] | 89.1%
36 | CC(=O)Nc1ccc(OCC(O)CNC2CCCC2)cc1 (stereo not shown) [CBK267857C] | 87.6%
37 | c1csc(N2CCCN(c3nccn4cnnc34)CC2)n1 [CBK305190] | 82.4%
38 | O=C(O)C1CCCN(C(=O)NCc2c(Cl)cccc2Cl)C1 (stereo not shown) [CBK161362] | 90%
39 | CCN1CCN(CCOc2c(OC)cccc2OC)CC1 [CBK267375G] | 96.9%
40 | CCC(CC)C(=O)N1CCn2c(nnc2-c2cncc(Br)c2)C1 [CBK304409] | 96.1%
41 | CC(=O)c1ccc(OCCn2c(SCC(=O)O)nc3ccccc32)cc1 [CBK287115] | 88.8%
42 | Cc1ccnc(NC(=O)C2CCCN(C(=O)OC(C)(C)C)C2)c1 (stereo not shown) [CBK305875] | 82.7%
43 | CN1CCN(C(=O)Cn2cccc(C(=O)Nc3ccc(F)cc3)c2=O)C(c2ccccc2)C1 (stereo not shown) [CBK286045] | 96.6%
44 | COc1cccc(CN2CCc3cc(OC)c(OC)cc3C2)c1 [CBK126441] | 102%
45 | CCN1CCN(C(=O)CN(Cc2ccc(Cl)cc2)S(C)(=O)=O)CC1 [CBK269263] | 82.8%
46 | O=C(CC1Nc2ccccc2NC1=O)Nc1cccc(C(F)(F)F)c1 (stereo not shown) [CBK262510] | 99.6%

Row | SMILES | viability at 28.5 h, 10 µM
47 | Cc1sc2ncn(CC(=O)NCCc3c[nH]cn3)c(=O)c2c1C [CBK304685] | 99.3%
48 | COc1ccc(OCc2nc(-c3cccs3)no2)cc1 [CBK269782] | 91.7%
49 | CCC(CC)C(=O)Nc1nc(OC)cnc1-c1cc(Cl)cc(Cl)c1 [CBK145338] | 95.8%
50 | COC(=O)CCc1ccc(S(=O)(=O)N2CCN(Cc3cc(C)c(O)c(C)c3)CC2)cc1 [CBK062814] | 113%
51 | CCOCCCNC(=O)C1CCN(c2cccc(F)c2C#N)CC1 [CBK306341] | 91.9%
52 | CCN(CC)C(=O)CN1CCC(Oc2cncc(Oc3ccc(OC)c(OC)c3)n2)C1 (stereo not shown) [CBK084404] | 93.9%
53 | Cc1ccc(CN2Cc3cc4ccccc4nc3OC(C)C2=O)o1 (stereo not shown) [CBK284004] | 90.6%
54 | O=C(CSc1nnc(CN2CCOCC2)n1-c1ccc(Cl)cc1)N1CCN(c2ccccc2)CC1 [CBK269088] | 96.9%
55 | CCCc1cc(C2CCCCCN2C(=O)c2c(C)noc2C)no1 (stereo not shown) [CBK284919] | 87.7%
56 | Cn1c(=O)n(C)c2cc(NC(=O)CSc3nc(Nc4ccccc4)nc(N4CCOCC4)n3)ccc21 [CBK269041] | 111%
57 | Cc1nnc(SCc2ccc(CSc3nnc(C)n3N)cc2)n1N [CBK265561] | 106%
58 | Nc1ncn(Cc2ccccc2)c2nc(SCc3ccccc3)nc1-2 [CBK025744] | 106%
59 | COc1ccc(-c2ccccc2NC(=O)c2cc(-n3cccn3)ccc2Cl)cc1 [CBK285634] | 91.3%
60 | C/C(=N\NC(=O)CCC(=O)Nc1ccc(I)cc1)c1ccc(O)cc1O [CBK261971] | 89.9%
61 | Cc1ccc(N2NC(=O)/C(=C/c3ccc(-c4ccc5c(c4)C(=O)NC5=O)o3)C2=O)cc1C [CBK262963] | 81.6%
62 | O=C1COc2ccc(C(=O)CSc3nnc(C4CC4)n3C3CC3)cc2N1 [CBK297110] | 73.4%
63 | Cc1noc(C)c1S(N)(=O)=O [CBK022939] | 84.6%
64 | CCN(CC)CCCNc1oc(-c2ccc(Cl)cc2)nc1C#N [CBK265746] | 126%
65 | O=C(N/N=C/c1c(Cl)cccc1Cl)c1cc(Br)ccc1O [CBK262022] | 95.1%
66 | COc1cccc(CSc2ccc(CN3CCOCC3)cc2F)c1 [CBK174976] | 87.1%
67 | COc1cccc(C2(NC(=O)CCn3cccn3)CCCC2)c1 [CBK283660] | 94.5%
68 | COc1cc(NS(=O)(=O)c2ccc(NC(=O)c3c(C)noc3C)cc2)nc(OC)n1 [CBK268151] | 103%
69 | COc1cccc2c3c([nH]c12)C1(CCN(CCOc2ccccc2)CC1)N(C=O)CC3 [CBK039423] | 112%

Row | SMILES | viability at 28.5 h, 10 µM
70 | COc1ccc(Oc2nccnc2N2CCN(CCCC#N)CC2)cc1OC [CBK083056T] | 95.5%
71 | O=C(N[C@H]1CCN2C(=O)N(c3cccc4nsnc34)C(=O)[C@@H]2C1)c1ccnc(Cl)c1 [CBK289545] | 91.2%
72 | Cc1cc(Cl)c(S(=O)(=O)N2CCCC2)cc1OCC(=O)NC1CCCCC1 [CBK266781] | 93.9%
73 | O=C(NCc1ccccc1)c1cnsn1 [CBK267302] | 90.8%
74 | CCN1CCN(c2ccc(NC(=O)c3ccc(OCc4ccccc4)cc3)cc2Cl)CC1 [CBK266683] | 78%
75 | O=C1CN=C(N2C(=O)C3C4C=CC(C4)C3C2=O)C(=O)N1 (stereo not shown) [CBK028818] | 89.7%
76 | O=C(CN1CCCCC1)Nc1cccc(-n2cnnn2)c1 [CBK027661] | 105%
77 | COc1cc(-c2cncc(N(CCO)CCO)n2)cc(OC)c1OC [CBK065544] | 112%
78 | O=C(CCCc1ccccc1)Nc1ccc(F)cc1[N+](=O)[O-] [CBK265446] | 99.9%
79 | CCc1cccc2c(CN3CCc4nc(C)[nH]c(=O)c4C3)c[nH]c12 [CBK283931] | 94.6%
80 | COc1ccc(-c2n[nH]c(=S)n2CCC(=O)NCc2ccc(CN3CCCCC3)cc2)cc1 [CBK297918] | 94.5%
81 | Nc1ccc2ccc(Cl)nc2n1 [CBK039198] | 113%
82 | COc1ccc(CN[C@@H]2CCC[C@H]2Cc2cc(C)no2)cc1 [CBK285401] | 94.4%
83 | COc1ccc(C2(NCc3ccc4c(c3)n(C)c(=O)n4C)CC2)cc1 [CBK282836] | 103%
84 | O=C(c1ncccc1O)N1CC(O)CC1c1cc(F)ccc1F (stereo not shown) [CBK306452] | 97.9%
85 | O=C1N=C(NC2CC3CCC2C3)SC12CCCO2 (stereo not shown) [CBK116312] | 110%
86 | Cc1ccc(C2(C(=O)NC(C)c3ccccn3)CCOCC2)cc1 (stereo not shown) [CBK281903] | 90.5%
87 | C=Cn1cc(CN2C3CCC2CC(O)(c2ccc(C)cc2)C3)c(C)n1 (stereo not shown) [CBK283015] | 90.5%
88 | COC(=O)c1ccccc1NC(=O)CN(c1cccc(Cl)c1Cl)S(C)(=O)=O [CBK264612] | 115%
89 | Cc1ccc(C2=CCN(CC(=O)Nc3nccs3)CC2)o1 [CBK283557] | 93.7%
90 | O=S(=O)(Nc1cnc2ccccc2c1)c1cccs1 [CBK043694] | 83%
91 | CCOC(=O)c1cnn(C2CCCN(Cc3cnnn3C)C2)c1 (stereo not shown) [CBK305122] | 98.5%
